# Source: patent publication US20220218614A1, “IONIZABLE CATIONIC LIPIDS AND LIPID NANOPARTICLES, AND METHODS OF SYNTHESIS AND USE THEREOF” (Tidal Therapeutics, Inc., priority 2020, published 2022)
# Entries after “also recorded” stand apart in the source; their conditions may differ.
# How the values were obtained:
# human CD3 T cells = assay: Transfection of human CD3 T cells (CD8 and CD4 subsets) with Fab/Nb-targeted LNPs; type: cell-based; conditions: targeted Lipid 8 LNP (Lipid 5 in Example 43), GFP mRNA approximately 2.5 μg/mL, approximately 24 hr
# Experimental: LNPs were prepared using the mixing process described in Example 6, the buffer exchange process described below in Example 21. Using methods similar to Example 12, hSP34 and TRX2 Fab-lipid conjugates and a non-T cell specific anti-HER2 lipid-conjugate (Nellis D F, Ekstrom D L, Kirpotin D B, Zhu J, Andersson R, Broadt T L, Ouellette T F, Perkins S C, Roach J M, Drummond D C, Hong K, Marks J D, Park J W and Giardina S L (2005) Preclinical manufacture of an anti-HER2 scFv-PEG-DSPE, liposome-inserting conjugate. 1. Gram-scale production and purification. Biotechnol Prog 21:205-220) were post-inserted at various densities (SP34 0.25-17 g/mol; TRX2 0.25-9 g/mol; SP34+TRX2 0.25-9 g/mol each conjugate; anti-HER2 17 g/mol) into LNPs containing Lipid 8 and anti-CD20 targeting CART mRNA. Transfections were performed with human CD3 T cells at approximately 2.5 μg/mL mRNA for approximately 24 hr. For FACS analysis T cells were stained with M1 antibody (Sigma, F3040) that bind a N-terminus FLAG-tag variant sequence on the TTR-023 CAR (sequence provided below) in addition to staining for CD69 (Biolegend, 310930) and CD4 (Biolegend, 344648) to differentiate CD8 from CD4 cells.
# LNPs were prepared using the mixing process described in Example 6, the buffer exchange process described in Example 21. Using methods similar to Example 12, hSP34, TRX2, and Ibalizumab Fab-lipid conjugates and a non-T cell specific anti-HER2 lipid-conjugate were post-inserted at various densities (specified in FIGS. 20A and 20B into LNPs containing Lipid 8 and Cy5/GFP mRNA. Transfections were performed with human CD3 T cells at approximately 2.5 μg/mL mRNA for approximately 24 hr and stained for CD69 (Biolegend, 310930) and CD4 (Biolegend, 344648) to differentiate CD8 from CD4 cells by FACS analysis.
# LNPs were prepared using the mixing process described in Example 6, the buffer exchange process described in Example 21. […] Levels of transfection of CD3 T cells was measured by flow cytometry. […]
# IFNγ = assay: Human IFNγ ELISA of T cell culture supernatants after LNP transfection; type: cell-based; conditions: T cells approximately 24 hr after targeted LNPs at approximately 2.5 μg/mL mRNA
# Experimental: LNPs were prepared using the mixing process described in Example 6, the buffer exchange process described in Example 21. hSP34 and TRX2 Fab-lipid conjugates generated from methods described in Example 4 and a non-T cell specific anti-HER2 lipid-conjugate (Nellis D F, Ekstrom D L, Kirpotin D B, Zhu J, Andersson R, Broadt T L, Ouellette T F, Perkins S C, Roach J M, Drummond D C, Hong K, Marks J D, Park J W and Giardina S L (2005) Preclinical manufacture of an anti-HER2 scFv-PEG-DSPE, liposome-inserting conjugate. 1. Gram-scale production and purification. Biotechnol Prog 21:205-220) were post-inserted at various densities (SP34 0.6-17 g/mol; TRX2 3-9 g/mol; anti-HER2 17 g/mol) into LNPs containing Lipid 8, Cy5 labeled GFP mRNA and GFP mRNA (1:9 Cy5:GFP mass ratio) by adding conjugate and LNPs together and heating the solution without mixing in a thermal cycler at 60 C for 60 min and cooled to 4° C. for 3-5 min. […] After transfection, LNP binding efficiency (Cy5) and transfection efficiency (GFP) was evaluated by flow cytometry. Supernatants were measured for human IFNγ concentration using a commercially available ELISA kit under manufacturers recommended conditions (R&D Systems Duoset).
# IFN-γ was assayed using an R&D Duoset […] ELISA kit, PN DY285B. […] Optical density at 450 nm was read on a Spectramax M5 plate reader. […]
Substance,"% GFP transfection and GFP expression (MFI) of CD8 and CD4 T cells, in words (human CD3 T cells)","IFNγ secretion into supernatant, in words (IFNγ)"
"SP34 NoDS Fab: anti-CD3 Fab without interchain disulfide, SEQ ID NO: 38 and 39",higher % transfection (FIG. 65E) and higher GFP expression levels (FIG. 65F) than the SP34 DS Fab; also recorded: higher % transfection (FIG. 67A) and higher GFP expression levels,
"TRX4: anti-CD3 TRX4 bDS Fab, SEQ ID NO: 50 and 51",lower levels of GFP expression,higher levels of IFNγ secretion than SP34
